From patent US11365187B2, “Pesticidally active pyrazole derivatives” (SYNGENTA PARTICIPATIONS AG, priority 2017, dated 2022)
Like-named read-outs stand apart in the source and are kept apart here.

Assays:
Format in all cases: in vivo
[1] = test system: Euschistus heros (Neotropical Brown Stink Bug); test: Euschistus heros feeding/contact activity on soybean leaves; details: 120 h
Method: Euschistus heros (Neotropical Brown Stink Bug): Feeding/contact activity
Soybean leaves on agar in 24-well microtiter plates were sprayed with aqueous test solutions prepared from 10′000 ppm DMSO stock solutions. After drying the leaves were infested with N2 nymphs. The samples were assessed for mortality 5 days after infestation.

[2] = test system: Thrips tabaci (Onion thrips); test: Thrips tabaci feeding/contact activity on sunflower leaf discs; details: foliar, 144 h
Method: Thrips tabaci (Onion thrips): Feeding/Contact activity
(§1) Sunflower leaf discs were placed on agar in 24-well microtiter plates and sprayed with aqueous test solutions prepared from 10′000 ppm DMSO stock solutions. After drying the leaf discs were infested with a thrips population of mixed ages. The samples were assessed for mortality 6 days after infestation.

[3] = test system: Diabrotica balteata (Corn root worm); test: Diabrotica balteata (Corn root worm) mortality on sprayed maize sprouts; details: 96 h
Method: Diabrotica balteata (Corn root worm):
Maize sprouts placed onto an agar layer in 24-well microtiter plates were treated with aqueous test solutions prepared from 10′000 ppm DMSO stock solutions by spraying. After drying, the plates were infested with L2 larvae (6 to 10 per well). The samples were assessed for mortality 4 days after infestation.

[4] = test system: Tetranychus urticae (Two-spotted spider mite); test: Tetranychus urticae feeding/contact activity on bean leaf discs; details: foliar, 192 h, read-out: mortality on mixed population (mobile stages)
Method: Tetranychus urticae (Two-spotted spider mite): Feeding/contact activity
as §1, with “Bean” for “Sunflower”, “discs” for “discs were placed”, “were” for “and”, “mite” for “thrips”, “on mixed population (mobile stages) 8” for “6”

[5] = test system: Spodoptera littoralis (Egyptian cotton leaf worm); test: Spodoptera littoralis feeding/contact activity on cotton leaf discs; details: foliar, 72 h
Method: Spodoptera littoralis (Egyptian cotton leaf worm): Feeding/contact activity
Cotton leaf discs were placed onto agar in 24-well microtiter plates and sprayed with aqueous test solutions prepared from 10′000 ppm DMSO stock solutions. After drying the leaf discs were infested with five L1 larvae. The samples were assessed for mortality 3 days after infestation. […] 2, 3, 4, 5, 6, 7, 8, 9, 10, 11, 12, 13, 14, 15, 16, 17, 18, 19, 20, 21, 22, 23, 24, 25, 26, 27, 28 and 29.

[6] = test system: Myzus persicae (Green peach aphid); test: Myzus persicae feeding/contact activity on sunflower leaf discs; details: foliar, 144 h
Method: Myzus persicae (Green peach aphid): Feeding/Contact activity
Sunflower leaf discs were placed onto agar in a 24-well microtiter plate and sprayed with aqueous test solutions prepared from 10′000 ppm DMSO stock solutions. After drying, the leaf discs were infested with an aphid population of mixed ages. The samples were assessed for mortality 6 days after infestation.

[7] = test system: Plutella xylostella (Diamond back moth); test: Plutella xylostella feeding/contact activity on artificial diet; details: 120 h
Method: Plutella xylostella (Diamond back moth): Feeding/contact activity
24-well microtiter plates with artificial diet were treated with aqueous test solutions prepared from 10′000 ppm DMSO stock solutions by pipetting. After drying, the plates were infested with L2 larvae (10 to 15 per well). The samples were assessed for mortality 5 days after infestation.

[8] = application rate 200 ppm, N2 nymphs, assessed 5 days after infestation, read-out: mortality
[9] = application rate 200 ppm, thrips population of mixed ages, assessed 6 days after infestation, read-out: mortality
[10] = application rate 200 ppm, L2 larvae, assessed 4 days after infestation, read-out: mortality
[11] = application rate 200 ppm, mite population of mixed ages, assessed 8 days after infestation
[12] = application rate 200 ppm, L1 larvae, assessed 3 days after infestation, read-out: mortality
[13] = application rate 200 ppm, aphid population of mixed ages, assessed 6 days after infestation, read-out: mortality
[14] = application rate 200 ppm, L2 larvae, assessed 5 days after infestation, read-out: mortality

Measured: mortality at 200 ppm

CC(=O)N(C(=O)c1cc(-c2cnn(-c3c(OC(F)F)c(C(F)(C(F)(F)F)C(F)(F)F)nn3C)c2)ccc1Cl)C1(C#N)CC1 [Example 12, N-acetyl-2-chloro-N-(1-cyanocyclopropyl)-5-[1-[4-(difluoromethoxy)-2-methyl-5-[1,2,2,2-tetrafluoro-1-(trifluoromethyl)ethyl]pyrazol-3-yl]pyrazol-4-yl]benzamide]
≥ 80%: [1]; [8] | [2]; [9] | [3]; [10] | [4]; [11] | [5]; [12] | [6]; [13] | [7]; [14]

Cn1nc(C(F)(C(F)(F)F)C(F)(F)F)c(OC(F)F)c1-n1cc(-c2cnc(Cl)c(C(=O)NC3(C#N)CC3)c2)cn1 [Example 19, 2-chloro-N-(1-cyanocyclopropyl)-5-[1-[4-(difluoromethoxy)-2-methyl-5-[1,2,2,2-tetrafluoro-1-(trifluoromethyl)ethyl]pyrazol-3-yl]pyrazol-4-yl]pyridine-3-carboxamide]
≥ 80%: [1]; [8] | [2]; [9] | [3]; [10] | [4]; [11] | [5]; [12] | [6]; [13] | [7]; [14]

CN(C(=O)c1cc(-c2cnn(-c3c(OC(F)F)c(C(F)(C(F)(F)F)C(F)(F)F)nn3C)c2)ccc1Cl)C1(C#N)CC1 [Example 4, 2-chloro-N-(1-cyanocyclopropyl)-5-[1-[4-(difluoromethoxy)-2-methyl-5-[1,2,2,2-tetrafluoro-1-(trifluoromethyl)ethyl]pyrazol-3-yl]pyrazol-4-yl]-N-methyl-benzamide]
≥ 80%: [1]; [8] | [2]; [9] | [3]; [10] | [4]; [11] | [5]; [12] | [6]; [13] | [7]; [14]

CCN(C(=O)c1cc(-c2cnn(-c3c(OC(F)F)c(C(F)(C(F)(F)F)C(F)(F)F)nn3C)c2)ccc1Cl)C1CC1 [Example 26, 2-chloro-N-cyclopropyl-5-[1-[4-(difluoromethoxy)-2-methyl-5-[1,2,2,2-tetrafluoro-1-(trifluoromethyl)ethyl]pyrazol-3-yl]pyrazol-4-yl]-N-ethyl-benzamide]
≥ 80%: [1]; [8] | [4]; [11] | [5]; [12] | [6]; [13] | [7]; [14]

CCOC(=O)N(C(=O)c1cc(-c2cnn(-c3c(OC(F)F)c(C(F)(C(F)(F)F)C(F)(F)F)nn3C)c2)ccc1Cl)C1(C#N)CC1 [Example 8, ethyl N-[2-chloro-5-[1-[4-(difluoromethoxy)-2-methyl-5-[1,2,2,2-tetrafluoro-1-(trifluoromethyl)ethyl]pyrazol-3-yl]pyrazol-4-yl]benzoyl]-N-(1-cyanocyclopropyl)carbamate]
≥ 80%: [1] | [4] | [5] | [6] | [7]

COCN(C(=O)c1cc(-c2cnn(-c3c(OC(F)F)c(C(F)(C(F)(F)F)C(F)(F)F)nn3C)c2)ccc1Cl)C1(C#N)CC1 [Example 9, 2-chloro-N-(1-cyanocyclopropyl)-5-[1-[4-(difluoromethoxy)-2-methyl-5-[1,2,2,2-tetrafluoro-1-(trifluoromethyl)ethyl]pyrazol-3-yl]pyrazol-4-yl]-N-(methoxymethyl)benzamide]
≥ 80%: [1]; [8] | [4]; [11] | [5]; [12] | [6]; [13] | [7]; [14]

COCCCN(C(=O)c1cc(-c2cnn(-c3c(OC(F)F)c(C(F)(C(F)(F)F)C(F)(F)F)nn3C)c2)ccc1Cl)C1(C#N)CC1 [Example 6, 2-chloro-N-(1-cyanocyclopropyl)-5-[1-[4-(difluoromethoxy)-2-methyl-5-[1,2,2,2-tetrafluoro-1-(trifluoromethyl)ethyl]pyrazol-3-yl]pyrazol-4-yl]-N-(3-methoxypropyl)benzamide]
≥ 80%: [1]; [8] | [4]; [11] | [5]; [12] | [6]; [13] | [7]; [14]

CCOC(=O)N(C(=O)c1cc(-c2cnn(-c3c(OC(F)F)c(C(F)(C(F)(F)F)C(F)(F)F)nn3C)c2)ccc1Cl)C1CC1 [Example 15, ethyl N-[2-chloro-5-[1-[4-(difluoromethoxy)-2-methyl-5-[1,2,2,2-tetrafluoro-1-(trifluoromethyl)ethyl]pyrazol-3-yl]pyrazol-4-yl]benzoyl]-N-cyclopropyl-carbamate]
≥ 80%: [1] | [4] | [5] | [6] | [7]

Cn1nc(C(F)(C(F)(F)F)C(F)(F)F)c(OC(F)F)c1-n1cc(-c2ccc(Cl)c(C(=O)N(CC#N)C3CC3)c2)cn1 [Example 16, 2-chloro-N-(cyanomethyl)-N-cyclopropyl-5-[1-[4-(difluoromethoxy)-2-methyl-5-[1,2,2,2-tetrafluoro-1-(trifluoromethyl)ethyl]pyrazol-3-yl]pyrazol-4-yl]benzamide]
≥ 80%: [1]; [8] | [4]; [11] | [5]; [12] | [6]; [13] | [7]; [14]

CCN(C(=O)c1cc(-c2cnn(-c3c(OC(F)F)c(C(F)(C(F)(F)F)C(F)(F)F)nn3C)c2)ccc1Cl)C1(C#N)CC1 [Example 3, 2-chloro-N-(1-cyanocyclopropyl)-5-[1-[4-(difluoromethoxy)-2-methyl-5-[1,2,2,2-tetrafluoro-1-(trifluoromethyl)ethyl]pyrazol-3-yl]pyrazol-4-yl]-N-ethyl-benzamide]
≥ 80%: [1]; [8] | [2]; [9] | [3]; [10] | [4]; [11] | [5]; [12] | [6]; [13] | [7]; [14]

CCOCN(C(=O)c1cc(-c2cnn(-c3c(OC(F)F)c(C(F)(C(F)(F)F)C(F)(F)F)nn3C)c2)ccc1Cl)C1(C#N)CC1 [Example 10, 2-chloro-N-(1-cyanocyclopropyl)-5-[1-[4-(difluoromethoxy)-2-methyl-5-[1,2,2,2-tetrafluoro-1-(trifluoromethyl)ethyl]pyrazol-3-yl]pyrazol-4-yl]-N-(ethoxymethyl)benzamide]
≥ 80%: [1]; [8] | [4]; [11] | [5]; [12] | [6]; [13] | [7]; [14]

COC(=O)N(C(=O)c1cc(-c2cnn(-c3c(OC(F)F)c(C(F)(C(F)(F)F)C(F)(F)F)nn3C)c2)ccc1Cl)C1(C#N)CC1 [Example 18, methyl N-[2-chloro-5-[1-[4-(difluoromethoxy)-2-methyl-5-[1,2,2,2-tetrafluoro-1-(trifluoromethyl)ethyl]pyrazol-3-yl]pyrazol-4-yl]benzoyl]-N-(1-cyanocyclopropyl)carbamate]
≥ 80%: [1] | [2] | [3] | [4] | [5] | [6] | [7]

Cn1nc(C(F)(C(F)(F)F)C(F)(F)F)c(OC(F)F)c1-n1cc(-c2ccc(Cl)c(C(=O)NC3(C#N)CC3)c2)cn1 [Example 1, 2-Chloro-N-(1-cyanocyclopropyl)-5-[1-[4-(difluoromethoxy)-2-methyl-5-[1,2,2,2-tetrafluoro-1-(trifluoromethyl)ethyl]pyrazol-3-yl]pyrazol-4-yl]benzamide]
≥ 80%: [1]; [8] | [2]; [9] | [3]; [10] | [4]; [11] | [5]; [12] | [6]; [13] | [7]; [14]
